Key:
[1] = Liposome encapsulation test, remote loading method (Experimental Example 4); format: physicochemical;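 as to Encapsulation efficiency: encapsulated compound as percent of compound amount introduced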;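 as to Encapsulation rate: encapsulated compound as percent of compound in liposome solution after insolubles removed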
Protocol: For Example 1, Example 2, Example 3, Example 4, Example 5, Example 6, Example 7, Example 8, Example 9, Example 10, Example 11, Example 12, Example 13, Example 14, Example 15, Example 16, Example 17 and Alvocidib, an encapsulation test in liposomes was performed using a remote loading method.
<Liposome Encapsulation Test of Example 1, Example 2, Example 5, Example 6, Example 9, Example 10, Example 11, Example 12, Example 13, Example 14, Example 15, and Example 16>
(§1) Hydrogenated soybean phosphatidylcholine (COATSOME NC-21E, manufactured by NOF CORPORATION, 7.77 g), cholesterol (manufactured by Sigma, 2.78 g) and distearoylphosphatidylethanolamine-methoxypolyethylene glycol 2000 (SUNBRIGHT DSPE-020CN, manufactured by NOF CORPORATION, 2.47 g) were dissolved in tert-butyl alcohol (720 mL) warmed to 65° C. The solution was placed in an eggplant flask and frozen in a dry ice-acetone bath, and then the tert-butyl alcohol was removed by evaporation under reduced pressure to give a lipid mixture.
To the above lipid mixture was added a 250 mM ammonium sulfate solution (240 mL), and the mixture was warmed to 65° C., and dispersed by a homogenizer (ULTRA-TURRAX, manufactured by IKA) to give a crude liposome dispersion. Then, the crude liposome dispersion was dispersed by a high pressure homogenizer (Nano-Mizer NM2, manufactured by YOSHIDA KIKAI CO., LTD.) at a pressure of 100 MPa to give liposomes with an average particle size (Z-average) of about 80 nm. The liposome outer solution was replaced with 10 mM L-histidine/10% sucrose solution (pH 6.5) using a dialysis cassette (Slide-A-Lyzer G2 Dialysis Cassettes 20K MWCO, manufactured by Thermo Scientific) to give an empty liposome solution. The solution was filtered through a 0.22 μm membrane filter, and a 10 mM L-histidine/10% sucrose solution (pH 6.5) was added thereto to adjust the total lipid concentration to 50 mM (50 μmol/mL). The lipid concentration was determined by quantitatively analyzing cholesterol using HPLC and calculating the total lipid concentration from the lipid mixing ratio. The amount for the above adjustment was increased or decreased as appropriate.
The compound (10 mg) was weighed, and the empty liposome solution (1 mL) with a total lipid concentration of 50 mM was added thereto. The solution was adjusted to pH 5 to 6 with 1 mol/L hydrochloric acid or 1 mol/L aqueous sodium hydroxide solution as necessary, warmed in a 65° C. water bath for 2 to 3 minutes, and ice-cooled. The mixture was centrifuged at 15,000×g for 5 minutes to precipitate and remove insoluble substances.
The liposome solution (100 μL) after removing insoluble substances was taken on an ultrafiltration filter (Amicon Ultra, 100K, 0.5 mL, manufactured by Merck) and centrifuged at 4° C., 15,000×g for 10 minutes. The compound concentrations in the liposome solution after removing insoluble substances and in the filtrate after ultrafiltration were determined by HPLC, and the encapsulation rate, encapsulation efficiency, and encapsulated compound content per 50 μmol of lipid were calculated by the following formula.
The measurement conditions for HPLC are as follows.
An empty liposome solution with a total lipid concentration of 75 mM was prepared by the same procedure as for the above example compound group. Each compound was weighed, and the empty liposome solution with a total lipid concentration of 75 mM was added thereto such that the compound concentration became 15 mg/mL. The solution was adjusted to pH 5 to 6 with 1 mol/L hydrochloric acid or 1 mol/L aqueous sodium hydroxide solution, warmed in a 65° C. water bath for 3 minutes, and ice-cooled. Hereafter, the encapsulation rate and encapsulation efficiency were calculated by the same procedure as for the above example compound group. The encapsulated compound content per 50 μmol of lipid was calculated by the following formula.
[formula] <Liposome Encapsulation Test of Example 7, Example 8 and Example 17> […]

[2] = mice, 2.5 mg/kg administration; cited from earlier work
[3] = Evaluation of conversion rate to active form in buffer solution (Experimental Example 1); format: physicochemical; settings: for Conversion to Alvocidib at pH 7.4: pH 7.4, 37° C., up to 3 hours
Procedure, shortened: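 Conversion to Alvocidib and loss of parent were followed by HPLC over 3 h (samples at 0, 0.5, 1, 2, 3 h). Incubations used 25 umol/L compound at 37 °C across pH 5.0–7.4, in 50 mM citrate below pH 6.0 and 50 mM phosphate from pH 6.0 upward.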

[4] = Evaluation of conversion rate to active form in human plasma (Experimental Example 3); format: in vitro ADME; settings: human, 0.2 μmol/L
Protocol: (§2) For Example 1, Example 2, Example 3, Example 4, Example 5, Example 6, Comparative Example 3, Comparative Example 4, Comparative Example 6, Comparative Example 7, Comparative Example 8, Comparative Example 9, Comparative Example 10 and Comparative Example 12, the attrition rate of the test compound and the conversion rate of the test compound to Alvocidib in human plasma and BALB/c mouse plasma were calculated by the following method.
(§3) The test compound was added to human plasma or BALB/c mouse plasma at a concentration of 0.2 μmol/L, and incubated at 37° C. The peak areas of the test compound and Alvocidib in the sample were determined by LC-MS/MS after 0, 30 and 60 minutes for Example 1, Example 2, Example 3, Example 4, Example 5 and Example 6, and after 0, 60 and 120 minutes for Comparative Example 3, Comparative Example 4, Comparative Example 6, Comparative Example 7, Comparative Example 8, Comparative Example 9, Comparative Example 10 and Comparative Example 12, and the attrition rate of the test compound and the conversion rate of the test compound to Alvocidib were calculated by the following formula. Attrition rate of test compound (%):(peak area of test compound in sample/peak area of test compound in sample after 0 minute)×100 Conversion rate to Alvocidib (%):(peak area of Alvocidib in sample/peak area of Alvocidib in reaction solution containing 0.2 μmol/L Alvocidib)×100
(§4) The measurement conditions for LC-MS/MS are as follows. • HPLC: Prominence system (Shimadzu Corporation) • MS/MS: • Example 1, Example 2, Example 3, Example 4, Example 5, Example 6, Comparative Example 8 (mouse), Comparative Example 10 (mouse) and Comparative Example 12 (mouse) • QTRAP5500 (SCIEX) • Comparative Example 6, Comparative Example 7, Comparative Example 8 (human), Comparative Example 9, Comparative Example 10 (human) and Comparative Example 12 (human) • 4000 QTRAP (SCIEX) • column: • other than Example 3 and Example 4 • Cadenza CD-C18, 3 μm, 50×2 mm (Imtakt Corporation) • Example 3 and Example 4 • Kinetex C8, 2.6 μm, 50×2.1 mm (Phenomenex) • column temperature: 40° C. • mobile phase: • A: water containing 0.1% formic acid • B: acetonitrile containing 0.1% formic acid • A/B (min): • Example 1, Example 2, Example 5, Example 6, Comparative Example 8 (mouse), Comparative Example 10 (mouse) and Comparative Example 12 (mouse) • 90/10(0)→40/60(5.0)→10/90(5.1)→10/90(6.5)→90/10(6.6)→90/10(8.0) • Example 3 and Example 4 • 86/14(0)→86/14(3.5)→10/90(5.5)→10/90(6.5)→86/14(6.6)→86/14(9.5) • Comparative Example 6, Comparative Example 7, Comparative Example 8 (human), Comparative Example 9, Comparative Example 10 (human) and Comparative Example 12 (human) • 90/10(0)→10/90(2.5)→10/90(3.5)→90/10(3.6)→90/10(5.0) • flow rate: 0.4 mL/min • detection: ESI (positive mode) • injection: 1 to 5 μL

[5] = Evaluation of conversion rate to active form in BALB/c mouse plasma (Experimental Example 3); format: in vitro ADME; settings: BALB/c, mouse, 0.2 μmol/L
Protocol: as §2, §3, §4

[6] = Pharmacokinetic test, intravenous solution and liposome formulations in mice (Experimental Example 6); format: in vivo; settings: female BALB/c mice
Protocol: This was used as a solution formulation.
This was used as a liposome formulation.
as §1, with “3.238” for “7.77”, “1.160” for “2.78”, “1,2-disteroyl-rac-glycero-3-methylpolyoxyethylen” for “distearoylphosphatidylethanolamine-methoxypolyethylene glycol”, “GS-020,” for “DSPE-020CN,”, “0.983” for “2.47”, “(300” for “(720”
To the above lipid mixture was added to a 250 mM ammonium sulfate solution (100 mL), and the mixture was warmed to 65° C., and dispersed by a homogenizer (ULTRA-TURRAX, manufactured by IKA) to give a crude liposome dispersion. […] The solution was filtered through a 0.22 μm membrane filter to adjust the total lipid concentration to 75 mM (75 μmol/mL). […] The solution was adjusted to pH 5 to 6 with 1 mol/L aqueous sodium hydroxide solution, warmed in a 65° C. water bath for 3 minutes, and ice-cooled. The liposome outer solution was replaced with 10 mM tartrate buffer solution/10% sucrose solution (pH 4) using a dialysis cassette (Slide-A-Lyzer G2 Dialysis Cassettes 20K MWCO, manufactured by Thermo Scientific), followed by filtration through a 0.22 μm membrane filter to adjust the concentration.
The solution formulation or liposome formulation was instantly administered intravenously to 7-week-old female BALB/c mice, and the blood was collected over time from the jugular vein without anesthesia up to 24 hours after administration for the solution formulation administration group and up to 72 hours after administration for the liposome formulation administration group. […] The plasma sample was centrifuged, and the concentrations of the test compound and Alvocidib in the obtained supernatant were determined by LC-MS/MS.

[7] = Compound concentration when encapsulated 5 mg/mL
[8] = Compound concentration when encapsulated 10 mg/mL

| SMILES | Encapsulation rate [1, 8] | Production rate of Alvocidib ([3]; pH7.4, 0 hr) [%] | Residual rate ([3]; pH7.4, 0 hr) [%] | Conversion to Alvocidib at pH 7.4 [3] | Production rate of Alvocidib ([3]; pH7.4, 0.5 hr) [%] | Residual rate ([3]; pH7.4, 0.5 hr) [%] | Production rate of Alvocidib ([3]; pH7.4, 1 hr) [%] | Residual rate ([3]; pH7.4, 1 hr) [%] | Production rate of Alvocidib ([3]; pH7.4, 2 hr) [%] | Residual rate ([3]; pH7.4, 2 hr) [%] | Production rate (%) of Alvocidib ([4]; 0 min) [%] | Residual rate (%) of test compound ([4]; 0 min) [%] | Production rate (%) of Alvocidib ([4]; 60 min) [%] | Residual rate (%) of test compound ([4]; 60 min) [%] | Production rate (%) of Alvocidib ([4]; 120 min) [%] | Residual rate (%) of test compound ([4]; 120 min) [%] | Production rate (%) of Alvocidib ([5]; 0 min) [%] | Residual rate (%) of test compound ([5]; 0 min) [%] | Production rate (%) of Alvocidib ([5]; 60 min) [%] | Residual rate (%) of test compound ([5]; 60 min) [%] | further results |
| --- | --- | --- | --- | --- | --- | --- | --- | --- | --- | --- | --- | --- | --- | --- | --- | --- | --- | --- | --- | --- | --- |
| CN1CC[C@H](c2c(O)cc(O)c3c(=O)cc(-c4ccccc4Cl)oc23)[C@H](O)C1.Cl [Alvocidib hydrochloride, 2-(2-chlorophenyl)-5,7-dihydroxy-8-[(3S,4R)-3-hydroxy-1-methylpiperidin-4-yl]-4H-chromen-4-one hydrochloride, reference compound] | not encapsulated due to gelation | – | – | – | – | – | – | – | – | – | – | – | – | – | – | – | – | – | – | – | Encapsulated compound content per 50 μmol of lipid [1, 7]: 4.8 mg; Encapsulation efficiency [1, 7]: 96.2%; Encapsulation rate [1, 7]: 99.5%; Encapsulation in liposomes ([1]; concentration 5 mg/mL): could be encapsulated in liposomes; Encapsulation in liposomes ([1]; concentration of 10 mg/mL): could not be encapsulated in liposomes |
| CN1CC[C@H](c2c(O)cc(O)c3c(=O)cc(-c4ccccc4Cl)oc23)[C@H](O)C1 [Alvocidib] | – | – | – | – | – | – | – | – | – | – | – | – | – | – | – | – | – | – | – | – | AUC [2]: 3.4 µmol·min/L |
| CCC(=O)O[C@@H]1CN(C)CC[C@@H]1c1c(O)cc(O)c2c(=O)cc(-c3ccccc3Cl)oc12 [Comparative Example 6] | – | 4.3 | 93.7 | slowly converted to Alvocidib | 4.4 | 93.6 | 4.5 | 95.1 | 4.7 | 94.9 | 5 | 100 | 12 | 89 | 15 | 89 | 6 | 100 | 48 | 48 | Production rate (%) of Alvocidib ([5]; 120 min): 66%; Residual rate (%) of test compound ([5]; 120 min): 33%; Blood retention of liposome formulation compared with the corresponding solution formulation [6]: did not show improved blood retention |
| CN1CC[C@H](c2c(O)cc(O)c3c(=O)cc(-c4ccccc4Cl)oc23)[C@H](OC(=O)c2ccccc2F)C1 [Comparative Example 12] | – | 1.4 | 98.0 | slowly converted to Alvocidib | 1.5 | 97.5 | 1.6 | 97.6 | 1.8 | 97.6 | 0 | 100 | 23 | 74 | 32 | 58 | 2 | 100 | 19 | 85 | Production rate (%) of Alvocidib ([5]; 120 min): 27%; Residual rate (%) of test compound ([5]; 120 min): 76% |
| CN1CC[C@H](c2c(OC(=O)N(C)C[C@@H]3COCCN3)cc(O)c3c(=O)cc(-c4ccccc4Cl)oc23)[C@H](O)C1 [Example 17, 2-(2-chlorophenyl)-5-hydroxy-8-[(3S,4R)-3-hydroxy-1-methylpiperidin-4-yl]-4-oxo-4H-1-benzopyran-7-yl methyl{[(3R)-morpholin-3-yl]methyl}carbamate] | 26.5% | – | – | – | – | – | – | – | – | – | – | – | – | – | – | – | – | – | – | – | Encapsulated compound content per 50 μmol of lipid [1, 8]: 2.4 mg; Encapsulation efficiency [1, 8]: 23.8% |
